Experimental data from patent US8680012B2, “4-phenyl-pyrane-3,5-diones,4-phenyl-thiopyrane-3,6-diones and cyclohexanetriones as novel herbicides” (Syngenta Crop Protection LLC, priority 2006, dated 2014).

Key:
[1] = system: Alopecurus myosuroides (ALOMY); assay: Example A pre-emergence herbicidal activity, glasshouse pot test; assay type: in vivo; settings: 480 h, evaluated 20 days after spraying, read-out: Pre-emergence activity ALOMY (100=total damage to plant; 0=no damage to plant); for pest or weed control at 250 g/ha: rate 250 g/ha; for pest or weed control at 500 g/ha: rate 500 g/ha
Procedure: (§1) Seeds of a variety of test species were sown in standard soil in pots. After cultivation for one day (pre-emergence) or after 10 days cultivation (post-emergence) under controlled conditions in a glasshouse, the plants were sprayed with an aqueous spray solution derived from the formulation of the technical active ingredient in 0.6 ml acetone and 45 ml formulation solution containing 10.6% Emulsogen EL (Registry number 61791-12-6), 42.2% N-methylpyrrolidone, 42.2% dipropylene glycol monomethyl ether (Registry number 34590-94-8) and 0.2% X-77 (Registry number 11097-66-8). The test plants were then grown in a greenhouse under optimum conditions until, 15 days later for post-emergence and 20 days for pre-emergence, the test was evaluated (100=total damage to plant; 0=no damage to plant).
(§2) Alopecurus myosuroides (ALOMY), Avena fatua (AVEFA), Lolium perenne (LOLPE), Setaria faberi (SETFA), Digitaria sanguinalis (DIGSA), Echinochloa crus-galli (ECHCG)

Avena fatua (AVEFA) [2] = assay: as above; assay type: in vivo; settings: 480 h, evaluated 20 days after spraying, read-out: Pre-emergence activity AVEFA (100=total damage to plant; 0=no damage to plant); for pest or weed control at 250 g/ha: rate 250 g/ha; for pest or weed control at 500 g/ha: rate 500 g/ha
Procedure: as §1, §2

[3] = system: Digitaria sanguinalis (DIGSA); assay: as above; assay type: in vivo; settings: 480 h, evaluated 20 days after spraying, read-out: Pre-emergence activity DIGSA (100=total damage to plant; 0=no damage to plant); for pest or weed control at 250 g/ha: rate 250 g/ha; for pest or weed control at 500 g/ha: rate 500 g/ha
Procedure: as §1, §2

[4] = system: Echinochloa crus-galli (ECHCG); assay: as above; assay type: in vivo; settings: 480 h, evaluated 20 days after spraying, read-out: Pre-emergence activity ECHCG (100=total damage to plant; 0=no damage to plant); for pest or weed control at 250 g/ha: rate 250 g/ha; for pest or weed control at 500 g/ha: rate 500 g/ha
Procedure: as §1, §2

Lolium perenne (LOLPE) [5] = assay: as above; assay type: in vivo; settings: 480 h, evaluated 20 days after spraying, read-out: Pre-emergence activity LOLPE (100=total damage to plant; 0=no damage to plant); for pest or weed control at 250 g/ha: rate 250 g/ha; for pest or weed control at 500 g/ha: rate 500 g/ha
Procedure: as §1, §2

Setaria faberi (SETFA) [6] = assay: as above; assay type: in vivo; settings: 480 h, evaluated 20 days after spraying, read-out: Pre-emergence activity SETFA (100=total damage to plant; 0=no damage to plant); for pest or weed control at 250 g/ha: rate 250 g/ha; for pest or weed control at 500 g/ha: rate 500 g/ha
Procedure: as §1, §2

[7] = system: Alopecurus myosuroides (ALOMY); assay: Example A post-emergence herbicidal activity, glasshouse pot test; assay type: in vivo; settings: 360 h, rate 125 g/ha, evaluated 15 days after spraying, read-out: Post-emergence activity ALOMY (100=total damage to plant; 0=no damage to plant)
Procedure: as §1, §2

Avena fatua (AVEFA) [8] = assay: as above; assay type: in vivo; settings: 360 h, rate 125 g/ha, evaluated 15 days after spraying, read-out: Post-emergence activity AVEFA (100=total damage to plant; 0=no damage to plant)
Procedure: as §1, §2

[9] = system: Digitaria sanguinalis (DIGSA); assay: as above; assay type: in vivo; settings: 360 h, rate 125 g/ha, evaluated 15 days after spraying, read-out: Post-emergence activity DIGSA (100=total damage to plant; 0=no damage to plant)
Procedure: as §1, §2

[10] = system: Echinochloa crus-galli (ECHCG); assay: as above; assay type: in vivo; settings: 360 h, rate 125 g/ha, evaluated 15 days after spraying, read-out: Post-emergence activity ECHCG (100=total damage to plant; 0=no damage to plant)
Procedure: as §1, §2

Lolium perenne (LOLPE) [11] = assay: as above; assay type: in vivo; settings: 360 h, rate 125 g/ha, evaluated 15 days after spraying, read-out: Post-emergence activity LOLPE (100=total damage to plant; 0=no damage to plant)
Procedure: as §1, §2

Setaria faberi (SETFA) [12] = assay: as above; assay type: in vivo; settings: 360 h, rate 125 g/ha, evaluated 15 days after spraying, read-out: Post-emergence activity SETFA (100=total damage to plant; 0=no damage to plant)
Procedure: as §1, §2

Row | Structure (SMILES) | pest or weed control at 250 g/ha [1] | pest or weed control at 250 g/ha (Avena fatua (AVEFA) [2]) | pest or weed control at 250 g/ha [3] | pest or weed control at 250 g/ha [4] | pest or weed control at 250 g/ha (Lolium perenne (LOLPE) [5]) | pest or weed control at 250 g/ha (Setaria faberi (SETFA) [6]) | pest or weed control at 125 g/ha [7] | pest or weed control at 125 g/ha (Avena fatua (AVEFA) [8]) | pest or weed control at 125 g/ha [9] | pest or weed control at 125 g/ha [10] | pest or weed control at 125 g/ha (Lolium perenne (LOLPE) [11]) | pest or weed control at 125 g/ha (Setaria faberi (SETFA) [12]) | pest or weed control at 500 g/ha [1] | pest or weed control at 500 g/ha (Avena fatua (AVEFA) [2]) | pest or weed control at 500 g/ha [3] | pest or weed control at 500 g/ha [4] | pest or weed control at 500 g/ha (Lolium perenne (LOLPE) [5]) | pest or weed control at 500 g/ha (Setaria faberi (SETFA) [6]) | melting point
1 | CCc1ccc(-c2ccc(Cl)cc2)cc1C1=C(O)C(C)(C)S(=O)(=O)C(C)(C)C1=O [Compound C-3] | 60% | 80% | 90% | 70% | 10% | 60% | 70% | 80% | 100% | 100% | 50% | 90% |  |  |  |  |  |  | 
2 | CCc1ccc(-c2ccc(Cl)cc2)cc1C1=C(O)C(C)(C)C(=O)C(C)(C)C1=O [Compound B-1] |  |  |  |  |  |  | 30% | 30% | 100% | 100% | 80% | 90% | 40% | 60% | 100% | 100% | 60% | 100% | 
3 | CCc1ccc(-c2ccc(Cl)cc2)cc1C1=C(O)C(C)(C)OC(C)(CC)C1=O (single isomer, unassigned) [Compound A-34] | 60% | 50% | 100% | 100% | 100% | 100% | 70% | 20% | 90% | 100% | 80% | 90% |  |  |  |  |  |  | 
4 | Cc1cc(-c2ccc(C)c(C3=C(O)C(C)(C)OC(C)(C)C3=O)c2)ccc1Cl [Compound A-53] | 10% | 0% | 60% | 10% | 0% | 10% | 30% | 10% | 50% | 90% | 10% | 0% |  |  |  |  |  |  | 
5 | CCc1ccc(-c2ccc(Cl)cc2)cc1C1=C(O)C(C)(CC)OC(C)(CC)C1=O (stereo not shown) [Compound A-35] | 70% | 70% | 80% | 100% | 80% | 100% | 80% | 50% | 80% | 100% | 70% | 80% |  |  |  |  |  |  | 
6 | Cc1ccc(-c2ccc(Cl)c(C(F)(F)F)c2)cc1C1=C(O)C(C)(C)OC(C)(C)C1=O [Compound A-52] | 0% | 0% | 100% | 70% | 10% | 80% | 90% | 70% | 70% | 90% | 30% | 60% |  |  |  |  |  |  | 
7 | Cc1ccc(-c2ccc(Cl)cc2)cc1C1=C(O)COCC1=O [Compound A-3] |  |  |  |  |  |  | 0% | 0% | 40% | 70% | 0% | 60% | 30% | 20% | 70% | 70% | 20% | 50% | 
8 | CCc1ccc(-c2ccc(Cl)cc2)cc1C1=C(O)C2CCCC(C1=O)C2=O (stereo not shown) [Compound B-53] |  |  |  |  |  |  |  |  |  |  |  |  |  |  |  |  |  |  | 79.5 °C
9 | CCc1ccc(-c2ccc(Cl)cc2)cc1C1=C(O)C(C)(C)[S+]([O-])C(C)(C)C1=O (stereo not shown) [Compound C-2] | 10% | 10% | 100% | 100% | 10% | 70% | 70% | 70% | 90% | 100% | 60% | 90% |  |  |  |  |  |  | 
10 | Cc1ccc(-c2ccc(C(F)(F)F)cc2)cc1C1=C(O)C(C)(C)OC(C)(C)C1=O [Compound A-10] | 40% | 50% | 100% | 100% | 60% | 100% | 30% | 20% | 100% | 100% | 0% | 50% |  |  |  |  |  |  | 
11 | CCc1ccc(-c2ccc(Cl)cc2)cc1C1=C(O)COCC1=O [Compound A-2] |  |  |  |  |  |  | 20% | 20% | 50% | 80% | 0% | 80% | 50% | 50% | 10% | 100% | 60% | 70% | 
12 | Cc1ccc(-c2ccc(Cl)c(F)c2)cc1C1=C(O)C(C)(C)OC(C)(C)C1=O [Compound A-47] | 30% | 20% | 70% | 70% | 30% | 60% | 90% | 90% | 80% | 100% | 70% | 50% |  |  |  |  |  |  | 
